This passage reports EC50 results from EP2527323A1, “Urea carbonyl disulfide derivatives and their therapeutic uses” (NOSCIRA, S.A., priority 2011, dated 2012).

The structures appear in SMILES notation.

One assay deals with T1, human recombinant GSK3β (Homo sapiens, UniProt P49841).
T1 construct: 6His (N); purchased Millipore (Billerica, MA, USA)
As to the kind of experiment: GSK-3β assay (Z'-LYTE FRET enzymatic activity). It is filed as biochemical. To be noted: 2 nM enzyme (N-terminal 6His-tagged, H350L mutation), 12.5 µM ATP, 2 µM Ser/Thr 9 peptide, 60 min at room temperature, 1% DMSO; read-out: GSK3β inhibition average EC50. How it is done:
The enzymatic activity of GSK3β was determined with a commercial system based on the Z'-LYTE® technology, available from Invitrogen Life Technologies (Carlsbad, CA, USA), using human recombinant GSK3β (N-terminal 6His-tagged recombinant enzyme with an H350L mutation) from Millipore (Billerica, MA, USA) as the enzyme source. This technology utilizes the fluorescence resonance energy transfer ("FRET") process between fluorescein and coumarin. The assay principle is based on the differential sensitivity of phosphorylated and non-phosphorylated peptide to proteolytic cleavage, which precludes the energy transfer process between the two fluorophores attached to both sides of the cleavage site. […] The latter is a synthetic peptide, provided by Invitrogen under the commercial name "Ser/Thr 9 peptide", and it is based upon the sequence of a GSK3β substrate protein (glycogen synthase I) containing Ser-641. The peptide is labeled at both ends with fluorescein and coumarin. The assay is carried out in the presence of different concentrations of the tested compound, at a final 1% (v/v) DMSO concentration. After a 60 min incubation at room temperature, 5 µl of a commercial protease solution (sold by the same vendor in the assay kit) is added and a subsequent 1h incubation at room temperature is performed, before adding 5 µl of a suitable "stop solution", also provided by the vendor in the kit. After that, fluorescence intensity is recorded, monitoring emission at both 445 and 520 nm, upon excitation at 400 nm. An emission ratio is finally calculated, using the quotient among the emission at 445 nm divided by that at 520 nm.
The emission ratio of each tested sample is normalized to that of the control wells, so that for every compound concentration the percentage of inhibition is calculated by using the following equation: % Inhibition = 100⋅(E-S)/(E-B) [formula] wherein "S" is the emission ratio of the sample being considered, "E" is the average emission ratio of wells, including enzyme in the absence of inhibitors, and "B" is the average emission ratio of wells without enzyme. The inhibition values obtained at every compound concentration are finally used to calculate the EC50 of the tested compound, this parameter being the concentration of the compound which causes 50% of inhibition. For that purpose, the data were fitted to a classical 4-parameters isotherm equation using the nonlinear regression function of GraphPad™ Prism 5.0 (GraphPad Software Inc.). Such equation is described below: % Inhibition = L + (H-L)/(1 + (((EC50)/(C)))^n) [formula] wherein "L" is the lower asymptote of the theoretical sigmoidal curve, "H" is the higher asymptote, "C" is the concentration of compound and "n" is the Hill coefficient.

Assay [1] relates to Ser-396 residue of Tau protein in human neuroblastoma SH-SY5Y cells. Put plainly: Cellular assay: phosphorylation at Ser-396 of Tau protein (ELISA). It is filed as cell-based. Particulars: 18 h incubation at 37°C, 1% DMSO, normalized to untreated cells, read-out: pS*er396-Tau average EC50. How it is done:
The effect of the compound in cells is determined by monitoring the level of phosphorylation at the Ser-396 residue of Tau protein in human neuroblastoma SH-SY5Y cells. Cells are grown in 96-well plates: 30,000 cells per well in a volume of 100 µl of 1:1 MEM:Ham's F12 medium including 10% (v/v) fetal bovine serum, 100 U/ml penicillin, 100 µg/ml streptomycin and 1% (v/v) 100-fold concentrated commercial stock of non-essential aminoacids (Gibco, Carlsbad, CA, USA), and incubated at 37°C during 24 h. Then, the corresponding amount of test compound is added to the wells to reach the desired concentration in 1% (v/v) DMSO. The system is incubated at 37°C during 18 h and afterwards cells are harvested, washed with phosphate buffer saline and incubated during 30 min on ice with 120 µl per well of "lysis buffer" (10 mM Tris-HCl pH 7.4, 100 mM NaCl, 1 mM EDTA, 2 mM sodium orthovanadate, 1% (v/v) Triton X-100, 10% (v/v) glycerol, 0.1% (w/v) sodium dodecyl sulfate, 0.5 % (w/v) sodium deoxycholate, 4% (v/v) 25-fold concentrated commercial stock of protease inhibitors (Roche, Basel, Switzerland) and 1 mM phenylmethylsulfonyl fluoride). 60 µl of this mixture is then placed in an empty 96-well plate and the levels of Ser-396 phosphorylation are determined using a commercial ELISA kit (Biosource, Carlsbad, CA, USA), following manufacturer's instructions. The levels of phosphorylation are expressed as percentage values, after normalizing them to those in untreated cells and those values are used to calculate EC50s, as described above for GSK-3.

T1 sequence (P49841 whole entry): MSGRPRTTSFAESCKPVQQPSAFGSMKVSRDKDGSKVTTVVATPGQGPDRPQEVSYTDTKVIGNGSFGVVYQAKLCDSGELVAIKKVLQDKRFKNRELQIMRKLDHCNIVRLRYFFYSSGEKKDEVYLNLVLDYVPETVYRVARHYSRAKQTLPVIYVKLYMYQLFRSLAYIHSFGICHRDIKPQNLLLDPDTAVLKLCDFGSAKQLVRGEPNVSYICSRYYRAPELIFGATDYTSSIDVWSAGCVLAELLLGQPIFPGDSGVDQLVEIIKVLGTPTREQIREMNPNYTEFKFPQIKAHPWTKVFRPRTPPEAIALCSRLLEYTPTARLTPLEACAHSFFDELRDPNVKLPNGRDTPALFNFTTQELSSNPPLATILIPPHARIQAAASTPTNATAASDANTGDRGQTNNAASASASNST

What is called EC50 is the concentration that produces a half-maximal response. Regarding `C=CCSSC(=O)N(Cc1ccccc1)C(=O)Nc1cccc2ccccc12` [Compound 1, 1-Benzyl-1-hex-2,3-dithia-5-enoyl-3-naphthalen-1-yl-urea], the EC50 at human recombinant GSK3β worked out at 708 nM.
In the case of `CCCCSSC(=O)N(Cc1ccccc1)C(=O)Nc1cccc2ccccc12` [Compound 2, 1-Benzyl-1-heptan-2,3-dithia-1-oyl-3-naphthalen-1-yl-urea], the EC50 at human recombinant GSK3β was determined as 66 nM.
Consider `CC(C)C(C)SSC(=O)N(Cc1ccccc1)C(=O)Nc1cccc2ccccc12` (centres unmarked) [Compound 3, 1-Benzyl-1-(4,5 dimethy-hexan-2,3-dithia-1-oyl)-3-naphthalen-1-yl-urea], for which the EC50 at human recombinant GSK3β turned out to be 161 nM.
For `O=C(Nc1cccc2ccccc12)N(Cc1ccccc1)C(=O)SSCCc1ccccc1` [Compound 4, 1-Benzyl-1-(5-phenyl-pentan-2,3-dithia-1-oyl)-3-naphthalen-1-yl-urea], the EC50 in assay [1] worked out at 6610 nM; at human recombinant GSK3β, 58 nM.
With `O=C(Nc1cccc2ccccc12)N(Cc1ccccc1)C(=O)SSC1CCCC1` [Compound 5, 1-Benzyl-1-(3-cyclopentyl-propion-2,3-dithia-1-oyl)-3-naphthalen-1-yl-urea], at human recombinant GSK3β, the EC50 worked out at 125 nM.
Consider `O=C(Nc1cccc2ccccc12)N(Cc1ccccc1)C(=O)SSCc1ccccc1` [Compound 6, 1-Benzyl-3-naphthalen-1-yl-1-(4-phenyl-butyr-2,3-dithia-1-oyl)-urea], for which the EC50 in assay [1] worked out at 6760 nM; at human recombinant GSK3β it was 229 nM.
Consider `O=C(Nc1ccc2c(c1)OCO2)N(Cc1ccccc1)C(=O)SSC1CCCC1` [Compound 7, 3-Benzo[1,3]dioxol-5-yl-1-benzyl-1-(1-propion-2,3-dithia-3-cyclopentyl-1-yl)-urea], for which the EC50 at human recombinant GSK3β was 82 nM.
Same read-out and setting: for `CCOC(=O)CNC(=O)N(CC(=O)OCC)C(=O)SSCCc1ccccc1` [Compound 8, [3-Ethoxycarbonylmethyl-3-(pentan-2,3-dithia-5-phenyl-1-yl)-ureido]-acetic acid ethyl ester] the value was 97 nM.
Turning to `CC(C)C(C)SSC(=O)N(Cc1ccccc1)C(=O)Nc1ccc(Oc2ccccc2)cc1` (centres unmarked) [Compound 9, 1-Benzyl-1-(hexan-2,5-dithia-4,5-dimethyl-1-yl)-3-(4-phenoxy-phenyl)-urea], the EC50 at human recombinant GSK3β was determined as 35 nM.
Turning to `CCCCCSSC(=O)N(Cc1ccccc1)C(=O)NCc1ccccc1` [Compound 10, 1,3-Dibenzyl-1-(octan-2,3-dithia-1-oyl)-urea], the EC50 came to 7080 nM in assay [1] and 295 nM on human recombinant GSK3β.
Turning to `COC(=O)C(CSSC(=O)N(Cc1ccccc1)C(=O)Nc1cccc2ccccc12)NC(C)=O` (centres unmarked) [Compound 11, 2-Acetylamino-6-(1-benzyl-3-naphthalen-1-yl-ureido)-4-5-dithia-6-oxo-hexanoic acid methyl ester], the EC50 on human recombinant GSK3β amounted to 104 nM.
On to `CCN(CC)C(=O)N(C(=O)SSCc1ccccc1)c1cc(F)cc(F)c1` [Compound 12], for which the EC50 on human recombinant GSK3β was 8320 nM.
In the case of `CCSSC(=O)N(C(=O)N(C)C)c1cccc(C(F)(F)F)c1` [Compound 13], the EC50 at human recombinant GSK3β was 339 nM.
`O=C(Nc1cccc2ccccc12)N(Cc1ccccc1)C(=O)SS` [Compound 15, Benzyl-(N-Naphthalen-1-yl-formamide)-carbamoyl sodium dithioperoxol]: the 50% effective concentration (EC50) on human recombinant GSK3β turned out to be 1660 nM.
